Data on one compound can be found in patent US12458622B2, “Methods of treatment of coronavirus-induced inflammation conditions” (priority 2020, dated 2025).

Like-named read-outs stand apart in the source and are kept apart here. Where only a bound is given, the exact number is not on record here.

Series [1] concerns APP/PS1 mice. The series is described as follows: Recruitment of microglial cells around amyloid plaques. The following applies: mouse, in vivo.
Series [2] concerns HMC3 human microglia cells. Kind of series: MSD U-PLEX chemokine secretion induced by TNF-α. The class given is cell-based. The following applies: 0.3 μg/mL TNF-α, 24 hours; for inhibition at 3 µM: Homo sapiens, HMC3. The protocol:
Human microglial cell line HMC3 (CRL-3304) was purchased from ATCC (American Type Culture Collection). HMC3 cell line was cultured in DMEM medium with 10% FBS, 1% L-glutamine, and 1% penicillin/streptomycin. Cells were maintained in 37° C. incubator at 5% CO2.
HMC3 cells were resuspended, counted using the LUNA-II Automated Cell Counter, seeded in the 6-well plate (400 K cells/2 mL medium/well), and incubated overnight to allow cells to attach. The media and detached cells were removed next day. The cell layer was washed three times in PBS and once in serum- and phenolred-free DMEM (SPFM). […] The conditioned medium was collected and centrifuged at 1,000×RCF (g) for 5 min to pellet detached cells and large debris, which was subsequently passed through a 0.22 μm filter with PVDF membrane to remove smaller debris. Samples of the supernatant medium were put in a CoolRack (#07210041, Fisher Scientific) on dry ice for Snap-freezing and kept at −80° C. until use.
Meso-scale U-PLEX plates that detect a cytokine panel including IL-1β, IL-2, IL-4, IL-6, IL-8, IL-10, IFN-γ, TNF-α, and a chemokine panel including IP-10/CXCL10, MCP-1/CCL2, MIP-1α/CCL3, MIP-1P/CCL4, Eotaxin/CCL11, were used as per manufacture's protocol. 25 μL of the conditioned medium was used in each well of the MSD plates to detect the analytes. The plates were then analyzed on an MSD QuickPlex SQ120 instrument.
All the data were presented as mean±standard error from at least three times, each done in triplicate. The statistical significance between two groups was determined by Student's t test, whereas the comparisons of multiple groups were carried out by one-way ANOVA, followed by Bonferroni's post-test using GraphPad Prism 7 (GraphPad Software, Inc.). A probability value of * p<0.05 was considered to be significant.

The nature of series [3]: pH of solution in saline. The following applies: 25 mg in 25 ml of saline. The class given is physicochemical. The protocol: In some embodiments, the compounds of the invention are provided as part of a kit for infusion. The kit contains from about 25 mg to about 250 mg of the compound of Formula I or II in a volume of buffer or saline from about 25 ml to about 250 ml. The pH of saline or buffer pH ranges from about 5.8 to about 6.8. […] Alternatively, the buffer can be Ringer's lactate (pH 6.5). Alternatively yet, the buffer can be citrate buffer (pH 6.0).

In series [4] the test system is Rat. Particulars: cited from earlier work.
The test system of series [5] is Dog. The following applies: cited from earlier work.
Series [6] deals with Rhesus Monkeys. The following applies: cited from earlier work.
The test system of series [7] is Stump-tailed Monkeys. Particulars: 20 mg cromolyn and lactose capsules, 4, 16 and 72 capsules/day, 17 weeks; cited from earlier work.
Series [8] has as its system Wistar Rats. Particulars: 4% cromolyn 0, 4, 8, 16 mg/day, 3 month; cited from earlier work.
Series [9] concerns Rhesus Monkeys. Particulars: daily IV dosing at 0, 2, 10 and 50 mg/kg, 6 months; cited from earlier work.

What is called inhibition is the share of the control response that was lost under treatment. For `O=C(O)c1cc(=O)c2c(OCC(O)COc3cccc4oc(C(=O)O)cc(=O)c34)cccc2o1` [cromolyn], the “Recruitment of microglial cells around amyloid plaques” value in series [1] is on record as “increased recruitment of microglial cells”. Moreover, the “extracellular IP-10 (CXCL10)” value in series [2] (0.3 μM) is reported as “statistically significant reduction”. Further, the “extracellular MCP-1 (CCL2)” value in [2] (0.3 μM) was “statistically significant reduction”. In addition, in series [2] (0.3 μM), the “extracellular MIP-1α (CCL3)” value is listed as “statistically significant reduction”. Besides, in series [2] (0.3 μM), the “extracellular MIP-1β (CCL4)” value was “statistically significant reduction”. Further, the inhibition at 3 µM in series [2] (read-out: inhibition of IP-10 (CXCL10)) is over 40%; in series [2] (read-out: inhibition of MCP-1 (CCL2)), over 40%; in [2] (read-out: inhibition of MIP-1α (CCL3)), 35.6%; in series [2] (read-out: inhibition of MIP-1β (CCL4)), over 40%. In addition, in series [3], the pH stood at 6.8. In addition, the “LD50 Value” in series [4] (IP) is over 4 gm/kg; in series [4] (IV) it was over 4 gm/kg; in series [4] (Oral) it was over 11 gm/kg; in series [4] (SC), 6 gm/kg; in series [5] (IV), over 1600 mg/kg; in series [5] (Oral), over 4 gm/kg. Further, the Mortality entry in [6] (single IV dose of 5, 50, 500, 1000 mg/kg, 7-day observation) is given as “There were no mortalities”. The “Clinical signs and weight” value in series [6] (single IV dose, at 500 and 1000 mg/kg) was “Slight ataxia and weight”. The Body weight entry in [7] is reported as “Some weight loss”. In [8], the General toxicity result is reported as “No general toxic effects”. For the same compound, in series [9], the “Body weight, observations, clinical laboratory results, organ weights, gross and microscopic pathology” value is recorded as “within normal limits and”.
